Measured values from US20140206028A1, “Stable Electrically Active Neurons from Adult Tissue” (University of Central Florida Research Foundation, Inc., priority 2011, published 2014).

Test system: adult rat hippocampal neurons
Experiment: Whole-cell patch-clamp electrophysiology of cultured adult hippocampal neurons (electrical recovery)
Format: cell-based
Details: cycloheximide during incubation of confluent neurons with 25 μM glutamate
Method: Whole-cell, patch-clamp recordings were performed at room temperature. pH was adjusted to 7.3 with HEPES acid and base, ion concentrations with NaCl to approximately 130 mM, and osmolarity of 290-300 mOsm. Cells were visualized on the stage with a Zeiss Axioscope, 2 FS Plus, upright microscope in maintenance culture medium. Patch pipettes (4-8 M′Ω) were filled with intracellular solution (K-gluconate 140 mM, EGTA 1 mM, MgCl2 2 mM, Na2ATP 5 mM, HEPES 10 mM; pH 7.2), osmolarity approximately 260 mOsm. Voltage clamp and current clamp experiments were performed with a Multiclamp 700A (MDS Analytical Devices) amplifier. Signals were filtered at 3 kHz and digitized at 20 kHz with an Axon Digidata 1322A interface. Data recordings and analysis were performed with pClamp software. Whole-cell capacitance and series resistance were compensated electronically. Only cells with access resistance less than 22 M′Ω were analyzed. Inward currents that had the characteristics of fast sodium currents, and outward currents that had the characteristics of potassium currents were measured in voltage clamp mode using voltage steps of 10 mV from a −70 mV holding potential. Action potentials were measured with 1 s depolarizing current injections to elicit action potentials from a −70 mV holding potential. Cells were morphologically selected for electrophysiological characterization. […]

## C[C@@H]1C[C@@H]([C@H](O)CC2CC(=O)NC(=O)C2)C(=O)[C@@H](C)C1 [cycloheximide]
  glutamate-induced improvements in neuronal electrical activity: completely blocked
